Experiments:
[1] = test system: SF-539; assay: NCI-60 SRB growth assay; type: cell-based, human
[2] = test system: SN12C; assay: NCI-60 SRB growth assay; type: cell-based, human
[3] = test system: HOP-92; assay: NCI-60 SRB growth assay; type: cell-based, human
[4] = test system: SR; assay: NCI-60 SRB growth assay; type: cell-based, human; details: Homo sapiens
[5] = test system: UACC-62; assay: NCI-60 SRB growth assay; type: cell-based, human
[6] = test system: UO-31; assay: NCI-60 SRB growth assay; type: cell-based, human
[7] = test system: HCC-2998; assay: NCI-60 SRB growth assay; type: cell-based, human
[8] = test system: SW-620; assay: NCI-60 SRB growth assay; type: cell-based, human
[9] = test system: LOX IMVI; assay: NCI-60 SRB growth assay; type: cell-based, human
[10] = test system: OVCAR-3; assay: NCI-60 SRB growth assay; type: cell-based, human
[11] = test system: SNB-75; assay: NCI-60 SRB growth assay; type: cell-based, human
[12] = test system: HL-60(TB); assay: cells; details: Homo sapiens
[13] = test system: HCT-15; assay: NCI-60 SRB growth assay; type: cell-based, human
[14] = test system: HEK; assay: MTT cytotoxicity assay; type: cell-based; details: Homo sapiens, HEK293, 48 h
[15] = test system: MCF7; assay: NCI-60 SRB growth assay; type: cell-based, human
[16] = test system: MALME-3M; assay: NCI-60 SRB growth assay; type: cell-based, human
[17] = test system: NCI/ADR-RES; assay: NCI-60 SRB growth assay; type: cell-based, human
[18] = test system: SK-MEL-2; assay: NCI-60 SRB growth assay; type: cell-based, human; details: SK-MEL-2
[19] = test system: MDA-MB-468; assay: NCI-60 SRB growth assay; type: cell-based, human
[20] = biological target: T1, Hu Topo I (Homo sapiens, UniProt P11387); assay: Plasmid DNA relaxation assay
T1 sequence (P11387 1-765): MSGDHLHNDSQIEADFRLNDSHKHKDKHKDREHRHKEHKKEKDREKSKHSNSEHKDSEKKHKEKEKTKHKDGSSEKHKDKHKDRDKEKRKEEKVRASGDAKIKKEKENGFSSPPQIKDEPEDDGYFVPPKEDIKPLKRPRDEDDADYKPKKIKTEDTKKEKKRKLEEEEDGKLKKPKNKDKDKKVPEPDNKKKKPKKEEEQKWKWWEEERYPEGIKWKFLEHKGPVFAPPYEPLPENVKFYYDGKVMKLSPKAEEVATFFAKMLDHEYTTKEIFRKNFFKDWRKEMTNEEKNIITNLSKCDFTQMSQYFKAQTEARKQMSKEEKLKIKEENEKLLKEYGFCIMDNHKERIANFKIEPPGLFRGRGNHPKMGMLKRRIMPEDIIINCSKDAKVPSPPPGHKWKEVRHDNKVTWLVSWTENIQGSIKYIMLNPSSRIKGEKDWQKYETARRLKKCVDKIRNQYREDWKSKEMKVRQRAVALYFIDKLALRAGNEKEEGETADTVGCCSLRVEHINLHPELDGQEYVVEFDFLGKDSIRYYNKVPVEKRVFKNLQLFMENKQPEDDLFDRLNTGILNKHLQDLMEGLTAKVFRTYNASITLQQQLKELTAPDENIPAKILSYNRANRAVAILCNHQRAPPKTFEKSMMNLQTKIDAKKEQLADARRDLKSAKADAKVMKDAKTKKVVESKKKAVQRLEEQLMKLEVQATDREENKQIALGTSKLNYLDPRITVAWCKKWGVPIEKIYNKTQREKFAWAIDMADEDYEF

[21] = test system: PC-3; assay: NCI-60 SRB growth assay; type: cell-based, human
[22] = test system: HCT-116; assay: NCI-60 SRB growth assay; type: cell-based, human
[23] = test system: DU-145; assay: NCI-60 SRB growth assay; type: cell-based, human
[24] = test system: HOP-62; assay: NCI-60 SRB growth assay; type: cell-based, human
[25] = test system: CCRF-CEM; assay: NCI-60 SRB growth assay; type: cell-based, human
[26] = test system: MDA-MB-231/ATCC; assay: NCI-60 SRB growth assay; type: cell-based, human

Question: Which results are given for `CCCN1CCN(c2ccc3[nH]c(-c4ccc5[nH]c(-c6ccc(OCC)c(OCC)c6)nc5c4)nc3c2)CC1` [11a, 2-(2-(3,4-Diethoxyphenyl)-1H-benzo[d]imidazol-5-yl)-5-(4-propylpiperazin-1-yl)-1H-benzo[d]imidazole]?
Answer: GI50 ([1]; Homo sapiens, SF-539): 0.79 µM; CC50 ([1]; Homo sapiens, SF-539, read-out: LC50): 4.8 µM; TGI ([1]; SF-539): 2.1 µM; GI50 ([2]; Homo sapiens, SN12C): 0.45 µM; CC50 ([2]; Homo sapiens, SN12C, read-out: LC50): 6.75 µM; TGI ([2]; SN12c): 2.06 µM; TGI ([3]; HOP-92): 4.5 µM; GI50 ([3]; Homo sapiens, HOP-92): 1.2 µM; CC50 ([3]; Homo sapiens, HOP-92, read-out: LC50): 26.3 µM; GI50 [4]: 0.29 µM; CC50 ([4]; read-out: LC50): > 100 µM; GI50 ([5]; Homo sapiens, UACC-62): 0.4 µM; CC50 ([5]; Homo sapiens, UACC-62, read-out: LC50): 5.3 µM; TGI ([5]; UACC-62): 1.9 µM; GI50 ([6]; Homo sapiens, UO-31): 1.67 µM; CC50 ([6]; Homo sapiens, UO-31, read-out: LC50): 8.76 µM; TGI ([6]; UO-31): 3.82 µM; TGI ([7]; HCC-2998): 2.62 µM; GI50 ([7]; Homo sapiens, HCC 2998): 1.24 µM; CC50 ([7]; Homo sapiens, HCC 2998, read-out: LC50): 5.5 µM; GI50 ([8]; Homo sapiens, SW-620): 0.3 µM; CC50 ([8]; Homo sapiens, SW-620, read-out: LC50): 4.3 µM; TGI ([8]; SW620): 1.2 µM; TGI [9]: 0.44 µM; GI50 ([9]; Homo sapiens): 0.2 µM; CC50 ([9]; Homo sapiens, read-out: LC50): 0.96 µM; GI50 ([10]; Homo sapiens, OVCAR-3): 0.26 µM; CC50 ([10]; Homo sapiens, OVCAR-3, read-out: LC50): 1.8 µM; TGI ([10]; OVCAR-3): 0.58 µM; GI50 ([11]; Homo sapiens, SNB-75): 0.71 µM; CC50 ([11]; Homo sapiens, SNB-75, read-out: LC50): 4.3 µM; TGI ([11]; SNB-75): 1.9 µM; GI50 ([12]; HL-60): 0.37 µM; CC50 ([12]; HL-60, read-out: LC50): > 100 µM; TGI ([13]; HCT-15): 18.9 µM; GI50 ([13]; Homo sapiens, HCT-15): 2.42 µM; CC50 ([13]; Homo sapiens, HCT-15, read-out: LC50): > 100 µM; IC50 [14]: 14.4 µM; TGI [15]: 1.53 µM; GI50 ([15]; Homo sapiens): 0.35 µM; GI50 ([16]; Homo sapiens, Malme-3M): 0.08 µM; CC50 ([16]; Homo sapiens, Malme-3M, read-out: LC50): 3.9 µM; TGI ([16]; MALME-3M): 1.2 µM; TGI [17]: >100 µM; GI50 ([17]; Homo sapiens): > 100 µM; CC50 ([17]; Homo sapiens, read-out: LC50): > 100 µM; GI50 ([18]; Homo sapiens): 14 µM; TGI [18]: 3.1 µM; GI50 ([19]; Homo sapiens, MDA-MB-468): 0.43 µM; CC50 ([19]; Homo sapiens, MDA-MB-468, read-out: LC50): 7.07 µM; TGI ([19]; MDA-MB-468): 1.82 µM; IC90 [20]: 140 µM; GI50 ([21]; Homo sapiens, PC-3): 0.38 µM; CC50 ([21]; Homo sapiens, PC-3, read-out: LC50): 6.12 µM; TGI ([21]; PC-3): 1.92 µM; TGI ([22]; HCT-116): 1.23 µM; GI50 ([22]; Homo sapiens, HCT-116): 0.24 µM; CC50 ([22]; Homo sapiens, HCT-116, read-out: LC50): 4.7 µM; TGI ([23]; DU-145): 2.02 µM; GI50 ([23]; Homo sapiens, DU-145): 0.44 µM; CC50 ([23]; Homo sapiens, DU-145, read-out: LC50): 12.4 µM; TGI ([24]; HOP-62): 5.2 µM; GI50 ([24]; Homo sapiens, HOP-62): 1.98 µM; CC50 ([24]; Homo sapiens, HOP-62, read-out: LC50): 23.4 µM; TGI [25]: 3.6 µM; GI50 ([25]; Homo sapiens): 0.4 µM; CC50 ([25]; Homo sapiens, read-out: LC50): > 100 µM; GI50 ([26]; Homo sapiens, MDA-MB-231): 1.38 µM; CC50 ([26]; Homo sapiens, MDA-MB-231, read-out: LC50): 6.78 µM; TGI ([26]; MDA-MB-231): 3.06 µM
